Reference: patent US20260258064A1 (SIRONAX LTD., priority 2023, published 2026)
pIC50: −log10 of the molar value.

Target: T1, SARM1 (50-724) (Homo sapiens, UniProt Q6SZW1)
T1 construct: Purified SARM1 (50-724) with a final concentration of 2 nM was pre-incubated with a test compound
T1 sequence (Q6SZW1 50-724): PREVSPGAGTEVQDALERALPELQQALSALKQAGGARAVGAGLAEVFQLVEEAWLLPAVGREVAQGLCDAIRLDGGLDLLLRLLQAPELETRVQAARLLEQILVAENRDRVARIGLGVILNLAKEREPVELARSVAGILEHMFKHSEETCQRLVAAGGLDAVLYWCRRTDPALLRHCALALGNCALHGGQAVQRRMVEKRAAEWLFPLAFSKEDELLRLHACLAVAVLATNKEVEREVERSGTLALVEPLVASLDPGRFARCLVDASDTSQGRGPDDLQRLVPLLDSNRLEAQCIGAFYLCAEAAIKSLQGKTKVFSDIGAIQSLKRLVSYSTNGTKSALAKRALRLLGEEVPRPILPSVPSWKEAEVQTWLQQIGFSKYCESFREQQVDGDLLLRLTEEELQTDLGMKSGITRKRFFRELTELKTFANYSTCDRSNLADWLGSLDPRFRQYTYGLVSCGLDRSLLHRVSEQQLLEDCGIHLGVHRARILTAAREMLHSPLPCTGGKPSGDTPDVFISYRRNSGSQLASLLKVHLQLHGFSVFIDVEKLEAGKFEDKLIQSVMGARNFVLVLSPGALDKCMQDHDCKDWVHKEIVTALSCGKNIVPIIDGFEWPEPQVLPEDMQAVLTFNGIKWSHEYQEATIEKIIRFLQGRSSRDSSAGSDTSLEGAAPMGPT
Assay: SARM1 (50-724) enzymatic assay (LC-MS/MS)
Format: biochemical
Details: Purified SARM1 (50-724) 2 nM, NMN as activator, NAD+ as substrate, 1 h at room temperature, read-out: IC50 (SARM1 inhibitory activity)
Method in brief: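 Reaction buffer was Dulbecco's PBS. Compound and 2 nM human SARM1 (50-724) were pre-incubated 15 min at room temperature, then […] NAD^+ and 200 µM NMN activator were added for 1 h at room temperature. Acetonitrile (70%) stop, LC-MS/MS read-out, IC50 values.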

`Oc1cc(F)c(Cl)c(-n2cnnc2-c2nc3cc(C(F)(F)F)cc(F)c3[nH]2)c1` [Compound 206, 4-chloro-3-fluoro-5-(3-(7-fluoro-5-(trifluoromethyl)-1H-benzo[d]imidazol-2-yl)-4H-1,2,4-triazol-4-yl)phenol] and `Cn1cc(OC(F)(F)F)c(-n2cnnc2-c2nc3cc(C(F)(F)F)cc(F)c3[nH]2)cc1=O` [Compound 222, 4-(3-(7-fluoro-5-(trifluoromethyl)-1H-benzo[d]imidazol-2-yl)-4H-1,2,4-triazol-4-yl)-1-methyl-5-(trifluoromethoxy)pyridin-2(1H)-one] cannot be ordered by pIC50: no less than 7.00 for the first, no less than 7.00 for the second.

`FC(F)(F)Oc1cnccc1-n1cnnc1-c1nc2cc(C34CC(C3)C4)ccc2[nH]1` [Compound 223, 5-(bicyclo[1.1.1]pentan-1-yl)-2-(4-(3-(trifluoromethoxy)pyridin-4-yl)-4H-1,2,4-triazol-3-yl)-1H-benzo[d]imidazole] and `Cc1c(Cl)cncc1-n1cnnc1-c1nc2cc(C(F)(F)F)ccc2[nH]1` [Compound 58] cannot be ordered by pIC50: no less than 7.00 for the first, no less than 7.00 for the second.

First: CS(=O)(=O)Cn1ncc(-c2nc3cc(C(F)(F)F)ccc3[nH]2)c1-c1cccc(Cl)c1Cl [Compound 439, 2-(5-(2,3-dichlorophenyl)-1-((methylsulfonyl)methyl)-1H-pyrazol-4-yl)-5-(trifluoromethyl)-1H-benzo[d]imidazole]
Second: Cn1ncc(-c2cccc(Cl)c2Cl)c1-c1nc2cc(C(F)(F)F)ccc2[nH]1 [Example 39]
The pIC50 of the first is higher: 6.30 to 7.00 for the first, less than 6.00 for the second.

`NC(=O)C1CC1c1ccc2[nH]c(-c3nncn3-c3cnccc3C(F)(F)F)nc2c1F` (centres unmarked) [Compound 321, 2-(4-fluoro-2-(4-(4-(trifluoromethyl)pyridin-3-yl)-4H-1,2,4-triazol-3-yl)-1H-benzo[d]imidazol-5-yl)cyclopropane-1-carboxamide] and `[2H]c1nnc(-c2nc3c(F)c(C4([2H])CC4)cc(F)c3[nH]2)n1-c1cnccc1C(F)(F)F` [Compound 394, 5-(cyclopropyl-1-d)-4,7-difluoro-2-(4-(4-(trifluoromethyl)pyridin-3-yl)-4H-1,2,4-triazol-3-yl-5-d)-1H-benzo[d]imidazole] cannot be ordered by pIC50: no less than 7.00 for the first, no less than 7.00 for the second.

`FC(F)(F)c1ccc2[nH]c(-c3nocc3-c3cccc(Cl)c3Cl)nc2c1` [Compound 322, 4-(2,3-dichlorophenyl)-3-(5-(trifluoromethyl)-1H-benzo[d]imidazol-2-yl)isoxazole] and `FC(F)(F)c1ccc2[nH]c(-c3ccnnc3-c3cccc(Cl)c3Cl)nc2c1` [Compound 296, 2-(3-(2,3-dichlorophenyl)pyridazin-4-yl)-5-(trifluoromethyl)-1H-benzo[d]imidazole] fall in the same range of pIC50: 6.30 to 7.00 for the first, 6.30 to 7.00 for the second.

Compared with `Cc1ccc2[nH]c(-c3ncnn3C3CCCC3)nc2c1` [Compound 10, 2-(2-cyclopentyl-1,2,4-triazol-3-yl)-5-methyl-1H-benzimidazole], `Cc1ccc2[nH]c(-c3cc(C#N)cn3C3CCCC3)nc2c1` [Compound 18, 1-cyclopentyl-5-(5-methyl-1H-benzo[d]imidazol-2-yl)-1H-pyrrole-3-carbonitrile] is higher in pIC50: less than 6.00 for the first, 6.30 to 7.00 for the second. The second is the more potent here.

`CCOC(=O)C1(c2ccc3[nH]c(-c4nncn4-c4cccc(Cl)c4Cl)nc3c2)CCC1` [Example 129] and `OC1(c2ccc3[nH]c(-c4nncn4-c4cccc(Cl)c4Cl)nc3c2)CCC1` [Example 111] cannot be ordered by pIC50: no less than 7.00 for the first, no less than 7.00 for the second.

`CS(=O)(=O)Cc1nnc(-c2nc3cc(C4(F)CC4)cc(F)c3[nH]2)n1-c1cccc(F)c1Cl` [Compound 203, 2-(4-(2-chloro-3-fluorophenyl)-5-((methylsulfonyl)methyl)-4H-1,2,4-triazol-3-yl)-7-fluoro-5-(1-fluorocyclopropyl)-1H-benzo[d]imidazole] and `CS(=O)(=O)Cc1nnc(-c2nc3cc(C(F)(F)F)cc(F)c3[nH]2)n1-c1cccc(Cl)c1Cl` (single isomer, unassigned) [Compound 186] cannot be ordered by pIC50: no less than 7.00 for the first, 6.30 to 7.00 for the second.

`Cn1cc(-c2cnccc2C(F)(F)F)c(-c2nc3cc(C(F)(F)F)c(Cl)cc3[nH]2)cc1=O` [Compound 389, 4-(5-chloro-6-(trifluoromethyl)-1H-benzo[d]imidazol-2-yl)-1-methyl-4′-(trifluoromethyl)-[3,3′-bipyridin]-6(1H)-one] and `COc1cc(-c2nc3cc(C(F)(F)F)ccc3[nH]2)c(-c2cccc(Cl)c2Cl)cn1` [Compound 402, 2-(5-(2,3-dichlorophenyl)-2-methoxypyridin-4-yl)-5-(trifluoromethyl)-1H-benzo[d]imidazole] fall in the same range of pIC50: 6.30 to 7.00 for the first, 6.30 to 7.00 for the second.

`C[S+]([O-])Cc1nnc(-c2nc3cc(C(F)(F)F)ccc3[nH]2)n1-c1cccc(Cl)c1Cl` (single isomer, unassigned) [Compound 147, 2-(4-(2,3-dichlorophenyl)-5-((methylsulfinyl)methyl)-4H-1,2,4-triazol-3-yl)-5-(trifluoromethyl)-1H-benzo[d]imidazole] and `NC(=O)c1ncc(-c2nc3cc(C(F)(F)F)ccc3[nH]2)n1-c1cccc(Cl)c1Cl` [Example 89, 1-(2,3-dichlorophenyl)-5-(5-(trifluoromethyl)-1H-benzo[d]imidazol-2-yl)-1H-imidazole-2-carboxamide] cannot be ordered by pIC50: no less than 7.00 for the first, 6.30 to 7.00 for the second.

`CC(Cc1nccs1)c1cc(F)c2[nH]c(-c3nncn3-c3cnccc3C(F)(F)F)nc2c1` (centres unmarked) [Compound 465, 2-(2-(7-fluoro-2-(4-(4-(trifluoromethyl)pyridin-3-yl)-4H-1,2,4-triazol-3-yl)-1H-benzo[d]imidazol-5-yl)propyl)thiazole] and `Fc1cc(C2CC23CCOCC3)cc2nc(-c3nncn3-c3cnccc3C(F)(F)F)[nH]c12` (centres unmarked) [Compound 360, 7-fluoro-5-(6-oxaspiro[2.5]octan-2-yl)-2-[4-[4-(trifluoromethyl)-3-pyridyl]-1,2,4-triazol-3-yl]-1H-benzimidazole] cannot be ordered by pIC50: no less than 7.00 for the first, no less than 7.00 for the second.

`CN1CCC(C)(c2ccc3[nH]c(-c4nncn4-c4ccc(F)c(F)c4Cl)nc3c2)C1=O` (centres unmarked) [Compound 165, 3-(2-(4-(2-chloro-3,4-difluorophenyl)-4H-1,2,4-triazol-3-yl)-1H-benzo[d]imidazol-5-yl)-1,3-dimethylpyrrolidin-2-one] and `CCC(O)(CC)c1ccc2[nH]c(-c3nncn3-c3ccc(F)c(F)c3Cl)nc2c1` [Compound 151, 3-(2-(4-(2-chloro-3,4-difluorophenyl)-4H-1,2,4-triazol-3-yl)-1H-benzo[d]imidazol-5-yl)pentan-3-ol] cannot be ordered by pIC50: 6.30 to 7.00 for the first, no less than 7.00 for the second.

First: Clc1cccc(-n2cnnc2-c2nc3cc(Br)ccc3[nH]2)c1Cl [Compound 49, 5-bromo-2-(4-(2,3-dichlorophenyl)-4H-1,2,4-triazol-3-yl)-1H-benzo[d]imidazole]
Second: N#Cc1c(Cl)cccc1-n1cnnc1-c1nc2cc(C(F)(F)F)ccc2[nH]1 [Example 91]
The pIC50 of the first is higher: no less than 7.00 for the first, less than 6.00 for the second.

First: Fc1ccc(-n2cnnc2-c2nc3cc(C(F)(F)F)ccc3[nH]2)c(Cl)c1Cl [Example 85]
Second: FC(F)(F)c1cc2cc(-c3nncn3-c3cnccc3C(F)(F)F)[nH]c2cn1 [Compound 299, 5-(trifluoromethyl)-2-(4-(4-(trifluoromethyl)pyridin-3-yl)-4H-1,2,4-triazol-3-yl)-1H-pyrrolo[2,3-c]pyridine]
The pIC50 of the first is higher: no less than 7.00 for the first, less than 6.00 for the second.

For `Cc1ccc2[nH]c(-n3c(-c4cccc(Cl)c4Cl)noc3=O)nc2c1` [Compound 29, 3-(2,3-dichlorophenyl)-4-(5-methyl-1H-benzo[d]imidazol-2-yl)-1,2,4-oxadiazol-5 (4H)-one], the pIC50 was less than 6.00.
